Data: US20250275951A1, “DRUGS TARGETING INFLAMMATION FOR THE TREATMENT OF OSTEOARTHRITIS AND OTHER INFLAMMATORY DISEASES” (The Board of Trustees of the Leland Stanford Junior …, priority 2020, published 2025)
Blank lines part the entries; values can stand above or below the compound they belong to.

Assays:
DMM mouse model for OA = assay: Cartilage degeneration scoring of safranin-O stained joint sections in DMM mouse model for OA; assay type: in vivo
Procedure: Histologic outcomes: 20 wks after DMM, mice are sacrificed, and OA assessed histologically by a blinded examiner scoring cartilage degeneration through Safranin-O stained sections, and scoring synovitis and osteophytes through H&E stained sections.
Treatment with pharmacologic agents. Beginning 24 hrs after DMM, mice (n=10 per experimental arm) are treated by injection or oral gavage for 12 wks with either vehicle, or one of the agents as detailed in Table 1.
Histologic analysis. Histologic analysis of mouse stifle joints occurs 20-wks after surgery. Cartilage degeneration is assessed through scoring of Safranin-O stained sections and synovitis and osteophyte formation assessed through scoring of H&E stained sections. Significance was assessed by unpaired 2-tailed Mann-Whitney U test, with *P<0.05, **P<0.01, ***P<0.001.
After 12 weeks of treatment, mice were sacrificed, and the stifle joints harvested for histologic analysis, and safranin-O stained joint tissue sections were scored by a blinded examiner for the degree of cartilage degeneration. […] Significance was assessed by unpaired 2-tailed Mann-Whitney U test, with *P<0.05, **P<0.01, ***P<0.001, N.S. non-significant.
After 12 weeks of treatment, mice were sacrificed, and the stifle joints harvested for histologic analysis, and safranin-O stained joint tissue sections were scored by a blinded examiner for the degree of cartilage degeneration. […] Significance was assessed by unpaired 2-tailed Mann-WhitneyU test, with *P<0.05, **P<0.01, ***P<0.001.
Mice were then sacrificed, and the stifle joints harvested for histologic analysis. (A) Safranin-O stained joint tissue sections were scored by a blinded examiner for the degree of cartilage degeneration. (B) Representative safranin-O stained sections from each group are presented. […] Significance was assessed by unpaired 2-tailed Mann-Whitney U test, with *P<0.05, **P<0.01, ***P<0.001.

[1] = in vivo; cited from earlier work
[2] = test system: human OA synovial tissue organoid; assay: Human OA synovial tissue organoid stimulation assay (qPCR); assay type: cell-based; settings: rupatadine 1 μM, fenofibrate 1 μM or both; 24 hr with human OA synovial fluid; vs vehicle
Procedure: Human OA synovium was obtained at the time of arthroplasty and cultured overnight in tissue culture medium with human OA synovial fluid.
The arthroplasty synovium was then washed with media, cut into approximately 2 mm pieces, and individual organoid pieces further stimulated for 24 hr with human OA synovial fluid in the presence of the test small molecule compounds and combinations including: vehicle control; rupatadine 1 μM; fenofibrate 1 μM; or rupatadine 1 μM+fenofibrate 1 μM. The organoids were then harvested, total RNA extracted, reverse transcription performed, followed by qPCR to quantitate levels of RNA encoding the inflammatory lipid PAF biosynthesis enzyme (Ipcat2) gene expression as well as PAF receptor (ptafr) gene expression.

Compound: CC(C)c1c(C(=O)Nc2ccccc2)c(-c2ccccc2)c(-c2ccc(F)cc2)n1CC[C@@H](O)C[C@@H](O)CC(=O)O [Atorvastatin]
prevention of OA (quantification of cartilage degeneration 20 wks post-DMM) (DMM mouse model for OA; C57BL/6J wild-type mice, atorvastatin 0.5 mg/kg for 12 wks following DMM vs vehicle, p=0.0513): does not prevent OA
development / severity of OA following DMM (DMM mouse model for OA; mice, dose not given at place): failure of atorvastatin to prevent OA

Compound: Cc1ccc(C)c(OCCCC(C)(C)C(=O)O)c1 [Gemfibrozil]
Bioavailability [1]: 100%

Compound: O=C1[C@H](CC[C@H](O)c2ccc(F)cc2)[C@@H](c2ccc(O)cc2)N1c1ccc(F)cc1 [Ezetimibe]
Bioavailability [1]: variable

Compound: CC(C)(Oc1ccc(CCNC(=O)c2ccc(Cl)cc2)cc1)C(=O)O [Bezafibrate]
Bioavailability [1]: 100%

PAF receptor (ptafr) gene expression [2]: decreased
inflammatory lipid PAF biosynthesis enzyme (Ipcat2) gene expression [2]: decreased
Compound: Cc1cncc(CN2CCC(=C3c4ccc(Cl)cc4CCc4cccnc43)CC2)c1 [Rupatadine]
severity / development of OA (cartilage degeneration scores) (DMM mouse model for OA; C57Bl/6 mice, oral gavage from 1 week after DMM for 3 months, rupatadine 20 μg, fenofibrate 40 μg, or both): decreased the severity of OA
severity of OA-related cartilage degeneration following DMM (DMM mouse model for OA; WT mice, vs vehicle (combination also vs either drug alone), Example 1, dose not given at place): significantly less severe OA-related cartilage degeneration

Compound: CCc1ccc(CCOc2ccc(CC3SC(=O)NC3=O)cc2)nc1 (stereo not shown) [Pioglitazone]
Bioavailability [1]: 83%
